Format in all cases: cell-based
The test system of assay [1] is Pythium sylvaticom (IM195). In words: Inhibition of Pythium by lysozyme in PD broth, % plate coverage. How it is done: (§1) Potato dextrose broth was prepared, poured into glass dilution bottles (100 ml each), autoclaved and allowed to cool. […] A fungal square (plug) of each culture was cut and placed in/near the center of each plate. Fungal growth was quantified by measuring the diameter of growth of each fungus while it was growing on the liquid media in each petri dish using a ruler. Each treatment was done in triplicate.
(§2) The experiment was repeated three times (three batches). The observation period for each batch was 2 weeks.
(§3) The fungal growth was expressed in % coverage of the petri dishes by the fungal patches. The calculation can be presented in the following equation:
(§4) Fungal growth (%)=(area of fungal patch/total plate area)×100

Assay [2] has as its system Pythium torrulesum (IM193). Described as above. The conditions noted are these: for fungal coverage of the plates: end of 2 weeks. How it is done: as §1, §2, §3, §4
In the next assay the test system is IM114 (Monilinia). The experiment in a line: Inhibition of Monilinia by lysozyme in PD broth, % plate coverage. The method, then:
(§5) Monilinia was grown in petri dishes on PD agar. Potato dextrose broth was prepared, poured into glass dilution bottles (100 ml each), autoclaved and allowed to cool. […] A fungal square (plug) of each culture was cut and placed in/near the center of each plate. Fungal growth was quantified by measuring the diameter of growth of each fungus while it was growing on the liquid media in each petri dish using a ruler. Each treatment was done with triplicates. The experiment was repeated three times (three batches). The observation period for each batch was 2 weeks.
(§6) The fungal growth was expressed in % coverage of the petri dishes by the fungal patches. The calculation is presented in the following equation:
as §4
(§7) The average plate coverage for the treatments was plotted against the time after inoculation (FIGS. 20 and 21). Statistical analysis was carried out using SigmaStat (Version 2.0, SPSS Science, 1997).

In a further assay the test system is IM115 (Monilinia). Described as above. How it is done:
as §5, §6, §4, §7

With “lysozyme: type c egg white lysozyme, enzyme of approximately 129 amino acids; commercially available from Canadian Inovatech, Inc.”, the “fungal growth (% plate coverage)” value in assay [1] (50 ppm) was 86%; in assay [1] (100 ppm), 51%; in assay [1] (250 ppm), 15%; in assay [1] (500 ppm) it was 7%; in assay [1] (1000 ppm), 6%. Further, the “fungal growth compared with 100, 50 or 0 ppm (Tukey test)” value is “significantly lower” in assay [1] (250, 500 or 1000 ppm, p<0.05) and “significantly lower” in assay [2] (250, 500 or 1000 ppm, p<0.05). Also, the “fungal coverage of the plates” value in assay [2] (50 ppm) worked out at 80%; in assay [2] (100 ppm), 80%; in assay [2] (250 ppm), 51%; in assay [2] (500 ppm), 25%; in assay [2] (1000 ppm), 14%. Also, the “concentration that can significantly inhibit the growth for at least 2 weeks” value in the assay with IM114 (Monilinia) (in general, in vitro, PD broth) is reported as 250-500 ppm; with IM115 (Monilinia) (in general, in vitro, PD broth), 250-500 ppm. Besides, the “concentration showing significant fungal growth reduction” value in the assay with IM114 (Monilinia) (p<0.05) and with IM115 (Monilinia) (p<0.05) was 100 ppm in each case.

The values are drawn from patent US20020001582A1, “Methods and compositions for inhibiting microbial growth” (priority 1999, published 2002).
